The record followed here is ChEMBL document CHEMBL1201862, “PubChem BioAssay data set” (2004).

The term GI50 denotes the concentration that inhibits growth by half.

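Step 1: Grow cells in 96-well plates. Step 2: Expose to compound for 48 hours at 5 concentrations. Step 3: Interpolate endpoints linearly; if unreached, use highest concentration. At the GI50, growth is halved.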 Activity calls are given as the source filed them. No stated cut-off is given here; in the data, active = GI50 up to about 1.1 µM and inactive = higher.

Test in all cases: DTP human tumour cell line panel, 48 h
Test [1] deals with UACC-257.
Test [2] has as its system TK-10.
Test [3] has as its system MDA-N.
For test [4], the system named is Hs-578T.
The test system of test [5] is UACC-62.
The subject of test [6] is HL-60.
The subject of test [7] is HCT-116.
The subject of test [8] is SN12C.
Test [9] concerns HCT-15.
Test [10] deals with RPMI-8226.
Test [11] deals with OVCAR-5.
Test [12] relates to MOLT-4.
The test system of test [13] is MDA-MB-231.
For test [14], the system named is SK-MEL-5.
For test [15], the system named is ACHN.
Test [16] concerns IGROV-1.
Test [17] relates to NCI-H522.
For test [18], the system named is CAKI-1.
For test [19], the system named is NCI-H460.
In test [20] the test system is SF-268.

Regarding `O=C(O)CCCSc1ccccc1`, the GI50 in [1], in test [2], in test [3], in [4], in test [5] and in test [6] was > 100 µM (inactive) throughout. Moreover, the GI50 is > 100 µM (inactive) in [7]; > 100 µM (inactive) in [8]; > 100 µM in [9]; > 100 µM (inactive) in [10]; > 100 µM (inactive) in test [11]; > 100 µM (inactive) in [12]. Moreover, the GI50 in test [13], in test [14], in test [15], in test [16], in test [17] and in test [18] was > 100 µM (inactive) in each case. For the same compound, the GI50 in test [19] and in test [20] was > 100 µM (inactive) in each case.
For the compound `CC(=O)Nc1ccc(CNc2cc(=O)[nH]c(=O)[nH]2)cc1`, the GI50 in [1], in test [2], in [3], in test [4], in test [5] and in test [6] was > 100 µM (inactive) each time. Also, the GI50 in [7] was > 100 µM (inactive); in [8], > 100 µM (inactive); in test [9] it was > 100 µM; in test [10], > 100 µM (inactive); in [11], > 100 µM (inactive); in test [12] it was > 100 µM (inactive). The GI50 in [13], in [14], in test [15], in test [16], in [17] and in test [18] was > 100 µM (inactive) in each case. Moreover, the GI50 in test [19] and in test [20] was > 100 µM (inactive) throughout.
For the compound `CC1(C)CCCC2CC2CCC(C)(C)C1=O` (stereo not given), the GI50 in test [1] is 39.5 µM (inactive); in [2] it was > 100 µM (inactive); in test [3], 29.5 µM (inactive); in test [4], > 100 µM (inactive); in [5], > 100 µM (inactive); in test [6], 18.1 µM (inactive). In addition, the GI50 was 78.2 µM (inactive) in test [7]; 71 µM (inactive) in test [8]; 71.9 µM in [9]; 25.2 µM (inactive) in test [10]; 46.5 µM (inactive) in test [11]; 29.2 µM (inactive) in test [12]. For the same compound, the GI50 is 82.4 µM (inactive) in [13]; 42.9 µM (inactive) in test [14]; > 100 µM (inactive) in test [15]; > 100 µM (inactive) in test [16]; 37.5 µM (inactive) in test [17]; > 100 µM (inactive) in test [18]. Further, the GI50 is 34.8 µM (inactive) in test [19] and > 100 µM (inactive) in [20].
For `CCCCNC(=O)c1cc2c(cc1Cl)Sc1nccn1S2(=O)=O`, the GI50 is > 100 µM (inactive) in [1]; > 100 µM (inactive) in [2]; 61.4 µM (inactive) in test [3]; 57.3 µM (inactive) in [4]; 86.5 µM (inactive) in [5]; 41.3 µM (inactive) in test [6]. Further, the GI50 in test [7] was 31 µM (inactive); in test [8], > 100 µM (inactive); in test [9] it was 92.9 µM; in test [10], > 100 µM (inactive); in test [11], > 100 µM (inactive); in test [12], 79.6 µM (inactive). In addition, the GI50 was > 100 µM (inactive) in test [13]; 0.0116 µM (active) in test [14]; 82 µM (inactive) in test [15]; > 100 µM (inactive) in [16]; 51.8 µM (inactive) in test [17]; 18.7 µM (inactive) in test [18]. Also, the values for the GI50 in test [19] and in [20] were 44.3 µM (inactive) and > 100 µM (inactive), respectively.
As to `COC(=O)C1CCC(=O)N1C(c1ccc2c(c1)OCO2)c1ccc2c(c1)OCO2` (stereo not given), the GI50 in [1], in test [2], in [3], in test [4], in test [5] and in test [6] was > 100 µM (inactive) each time. In addition, the GI50 in test [7] is > 100 µM (inactive); in test [8], > 100 µM (inactive); in test [9], > 100 µM; in [10], > 100 µM (inactive); in test [11], > 100 µM (inactive); in [12], > 100 µM (inactive). Moreover, the GI50 in test [13], in test [14], in [15], in test [16], in [17] and in [18] was > 100 µM (inactive) in each case. The GI50 in [19] and in test [20] was > 100 µM (inactive) each time.
Consider `NC(=O)C1=C(O)C[C@@H]2CC3Cc4cccc(O)c4C(=O)C3=C(O)[C@]2(O)C1=O` (stereo not given in full), for which the GI50 in test [1] is 3.07 µM (inactive); in test [2], 4.86 µM (inactive); in test [3], 2.9 µM (inactive); in test [4], 2.81 µM (inactive); in test [5], 2.15 µM (inactive); in [6] it was 2.83 µM (inactive). Further, the GI50 in test [7] is 1.8 µM (inactive); in [8] it was 3.01 µM (inactive); in test [9], 0.479 µM; in [10], 0.755 µM (active); in test [11], 0.449 µM (active); in test [12], 1.61 µM (inactive). Further, the GI50 was 2.78 µM (inactive) in test [13]; 1.36 µM (inactive) in test [14]; 1.07 µM (active) in test [15]; 2 µM (inactive) in [16]; 1.89 µM (inactive) in [17]; 10.6 µM (inactive) in [18]. Besides, the GI50 in [19] is 1.56 µM (inactive); in [20], 2.02 µM (inactive).
Turning to `O=C(CN1CCCC1)Nc1ccc2sc3ccccc3c(=O)c2n1`, the GI50 was > 10 µM (inactive) in test [1]; 33 µM (inactive) in test [2]; 20.8 µM (inactive) in test [3]; 21.2 µM (inactive) in test [4]; 19.9 µM (inactive) in test [5]; > 10 µM (inactive) in test [6]. In addition, the GI50 in test [7] was 13.9 µM (inactive); in [8], 16.4 µM (inactive); in [9], 23.2 µM; in [10], 21.3 µM (inactive); in [11], 24.4 µM (inactive); in [12] it was 1.91 µM (inactive). In addition, the GI50 was 26.4 µM (inactive) in test [13]; 16.5 µM (inactive) in test [14]; 12.5 µM (inactive) in [15]; 23.2 µM (inactive) in [16]; 11.2 µM (inactive) in test [17]; 18 µM (inactive) in test [18]. In addition, the values for the GI50 in test [19] and in test [20] were 22 µM (inactive) and 24.7 µM (inactive), respectively.
